Values quoted from earlier work, collected in US11351152B2, “Method and composition for treating seizure disorders” (India Globalization Capital, Inc., priority 2016, dated 2022).

Experiments:
[1] = tested on: single patient; conditions: 900-1200 mg of cannabidiol a day for 10 months
[2] = tested on: epileptic patients; conditions: 200-300 mg of cannabidiol per day in combination with standard antiepileptic drugs, 12 epileptic patients
[3] = tested on: patients; conditions: 200-300 mg of cannabidiol in combination with regular medication

Question: With C=C(C)[C@@H]1CCC(C)=C[C@H]1c1c(O)cc(CCCCC)cc1O [cannabidiol] as the compound, how does the frequency of seizures [1] read?
Answer: markedly reduced the frequency of seizures

Question: And the seizure frequency [2]?
Answer: no significant improvement in seizure frequency

Question: And the improvement versus placebo [3]?
Answer: showed improvement over those that received a placebo

Question: And the unwanted side effect [3]?
Answer: Mild sedation
